Holding throughout (type): biochemical
Assay [1] deals with c-Met (Homo sapiens, UniProt P08581). The experiment in a line: c-Met Inhibition Assay, coupled enzyme system. To be noted: enzyme inhibition data (Ki), Table 11. In a few lines: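 Pyruvate kinase/lactate dehydrogenase-coupled NADH assay in HEPES pH 7.5 with 80 nM c-Met, 200 μM ATP and 10 μM polyGluTyr at 30° C. Compound (0.006–12.5 μM final, 12-point) preincubated 10 min before ATP start; rates over 10 min gave Ki.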

The target in assay [2] is T1, Aurora-2 (Homo sapiens, UniProt O14965).
T1 sequence (O14965 1-403): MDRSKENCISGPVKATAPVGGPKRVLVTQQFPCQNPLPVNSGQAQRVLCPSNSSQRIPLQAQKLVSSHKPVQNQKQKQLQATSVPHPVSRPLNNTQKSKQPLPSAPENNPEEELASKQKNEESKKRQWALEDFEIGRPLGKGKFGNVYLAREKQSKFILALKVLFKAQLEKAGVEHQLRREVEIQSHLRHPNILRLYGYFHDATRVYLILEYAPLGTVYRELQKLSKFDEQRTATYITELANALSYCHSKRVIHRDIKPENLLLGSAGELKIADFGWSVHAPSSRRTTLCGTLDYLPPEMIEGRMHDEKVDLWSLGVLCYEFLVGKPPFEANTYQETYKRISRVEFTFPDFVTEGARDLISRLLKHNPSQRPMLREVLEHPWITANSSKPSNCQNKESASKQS
The experiment in a line: Aurora-A (Aurora-2) Inhibition Assay, coupled enzyme assay. As to conditions: enzyme inhibition data (Ki), Table 11; read-out: AurA Ki. In a few lines:
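Coupled pyruvate kinase/lactate dehydrogenase assay following NADH, pH 7.5 Hepes, 40 nM Aurora-2, 400 μM ATP and 570 μM Kemptide at 30 °C. Compound (top final typically 7.5 μM) preincubated 10 min; initial rates over 10 min; IC50 and Ki by non-linear regression.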

Assay [3] has as its target Aurora-B (Homo sapiens, UniProt Q96GD4). The experiment in a line: Aurora B (Aurora-1) Inhibition Assay, 33P incorporation. As to conditions: enzyme inhibition data (Ki), Table 11; read-out: AurB Ki. How it is done:
An assay buffer solution is prepared which consists of 25 mM HEPES (pH 7.5), 10 mM MgCl2, 0.1% BSA and 10% glycerol. A 22 nM Aurora-B solution, also containing 1.7 mM DTT and 1.5 mM Kemptide (LRRASLG), is prepared in assay buffer. To 22 μL of the Aurora-B solution, in a 96-well plate, is added 2 μl of a compound stock solution in DMSO and the mixture is allowed to equilibrate for 10 minutes at 25° C. The enzyme reaction is initiated by the addition of 16 μl stock [γ-^33P]-ATP solution (˜20 nCi/μL) prepared in assay buffer, to a final assay concentration of 800 μM. The reaction is stopped after 3 hours by the addition of 16 μL 500 mM phosphoric acid and the levels of ^33P incorporation into the peptide substrate is determined by the following method.
A phosphocellulose 96-well plate (Millipore, Cat no. MAPHNOB50) is pre-treated with 100 μL of a 100 mM phosphoric acid prior to the addition of the enzyme reaction mixture (40 μL). The solution is left to soak on to the phosphocellulose membrane for 30 minutes and the plate subsequently is washed four times with 200 μL of a 100 mM phosphoric acid. To each well of the dry plate is added 30 μL of Optiphase ‘SuperMix’ liquid scintillation cocktail (Perkin Elmer) prior to scintillation counting (1450 Microbeta Liquid Scintillation Counter, Wallac). Levels of non-enzyme catalysed background radioactivity are determined by adding 16 μL of the 500 mM phosphoric acid to control wells, containing all assay components (which acts to denature the enzyme), prior to the addition of the [γ-^33P]-ATP solution. Levels of enzyme catalysed ^33P incorporation are calculated by subtracting mean background counts from those measured at each inhibitor concentration. For each Ki determination 8 data points, typically covering the concentration range 0-10 μM compound, are obtained in duplicate (DMSO stocks are prepared from an initial compound stock of 10 mM with subsequent 1:2.5 serial dilutions). Ki values are calculated from initial rate data by non-linear regression using the Prism software package (Prism 3.0, Graphpad Software, San Diego, Calif.).

c-Met, sequence (P08581 25-1390): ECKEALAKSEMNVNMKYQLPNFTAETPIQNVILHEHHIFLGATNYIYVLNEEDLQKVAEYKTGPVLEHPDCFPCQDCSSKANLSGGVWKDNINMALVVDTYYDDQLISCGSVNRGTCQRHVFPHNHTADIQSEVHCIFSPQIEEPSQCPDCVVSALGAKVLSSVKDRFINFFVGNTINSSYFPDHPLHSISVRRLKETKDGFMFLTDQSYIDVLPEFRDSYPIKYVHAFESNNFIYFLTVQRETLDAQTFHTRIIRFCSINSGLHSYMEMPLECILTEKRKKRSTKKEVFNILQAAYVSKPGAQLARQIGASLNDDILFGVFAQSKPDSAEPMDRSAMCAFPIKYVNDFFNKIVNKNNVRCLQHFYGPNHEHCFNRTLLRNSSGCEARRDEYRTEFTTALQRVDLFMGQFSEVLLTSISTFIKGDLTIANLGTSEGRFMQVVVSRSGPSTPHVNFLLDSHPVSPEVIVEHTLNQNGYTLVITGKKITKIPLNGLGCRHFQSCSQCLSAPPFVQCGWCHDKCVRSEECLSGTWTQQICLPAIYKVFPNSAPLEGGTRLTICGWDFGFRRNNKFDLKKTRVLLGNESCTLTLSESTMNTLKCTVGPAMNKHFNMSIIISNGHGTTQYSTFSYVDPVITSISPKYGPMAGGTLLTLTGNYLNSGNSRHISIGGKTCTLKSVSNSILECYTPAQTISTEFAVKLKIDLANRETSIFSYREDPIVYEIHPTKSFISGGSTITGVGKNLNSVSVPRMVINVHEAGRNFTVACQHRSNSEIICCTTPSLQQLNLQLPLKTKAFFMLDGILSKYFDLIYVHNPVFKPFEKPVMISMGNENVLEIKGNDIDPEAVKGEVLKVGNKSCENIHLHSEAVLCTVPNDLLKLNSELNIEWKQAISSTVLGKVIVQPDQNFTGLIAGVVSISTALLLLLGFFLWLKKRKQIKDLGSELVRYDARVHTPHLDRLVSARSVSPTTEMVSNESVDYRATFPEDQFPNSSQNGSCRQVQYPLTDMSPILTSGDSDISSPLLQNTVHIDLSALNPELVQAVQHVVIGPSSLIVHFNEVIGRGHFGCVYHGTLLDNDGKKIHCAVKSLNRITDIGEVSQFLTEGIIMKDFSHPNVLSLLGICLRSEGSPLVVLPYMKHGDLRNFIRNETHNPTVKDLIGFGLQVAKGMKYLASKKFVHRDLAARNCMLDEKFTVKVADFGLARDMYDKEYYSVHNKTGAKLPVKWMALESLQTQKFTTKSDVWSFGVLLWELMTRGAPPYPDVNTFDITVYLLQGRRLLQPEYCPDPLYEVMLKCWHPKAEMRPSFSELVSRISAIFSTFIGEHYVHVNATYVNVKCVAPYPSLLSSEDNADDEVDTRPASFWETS
Aurora-B, sequence (Q96GD4 whole entry): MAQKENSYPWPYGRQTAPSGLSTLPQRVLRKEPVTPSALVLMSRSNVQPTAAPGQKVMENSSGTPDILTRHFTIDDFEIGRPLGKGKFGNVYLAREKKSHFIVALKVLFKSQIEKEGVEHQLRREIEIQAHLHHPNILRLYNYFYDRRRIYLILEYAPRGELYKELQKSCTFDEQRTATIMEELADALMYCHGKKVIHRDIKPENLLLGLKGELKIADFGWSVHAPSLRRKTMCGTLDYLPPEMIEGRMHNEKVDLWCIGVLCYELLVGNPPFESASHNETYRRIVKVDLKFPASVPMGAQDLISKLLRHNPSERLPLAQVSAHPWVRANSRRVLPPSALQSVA

`Cc1cnc2c(-c3cc(NC(C)C)ncn3)c(N)nn2c1` [Compound V-273]: the values for the Ki in assay [1], in assay [2] and in assay [3] were < 500 nM, 500 to 5000 nM and 500 to 5000 nM, respectively.
With `COc1ccccc1Nc1cc(-c2c(N)nn3cc(C)cnc23)ncn1` [Compound V-274], the Ki in assay [1] was < 500 nM; in assay [2], 500 to 5000 nM; in assay [3], 500 to 5000 nM.

Values taken from patent publication US7528138B2, “Pyrazolo[1,5-a]pyrimidines useful as inhibitors of protein kinases” (Vertex Pharmaceuticals Incorporated, priority 2004, dated 2009).
